From patent US11319299B2, “Substituted carboxamides as inhibitors of WDR5 protein-protein binding” (PROPELLON THERAPEUTICS INC., priority 2016, dated 2022)

Target: WDR5 (Homo sapiens (Human), UniProt P61964)
Assay: Surface Plasmon Resonance (SPR) assay, KD and residence time
Assay type: binding
Conditions: surface plasmon resonance (SPR) assay; read-out: WDR5 binding affinity (KD)
Procedure: (i) Surface Plasmon Resonance (SPR) Assay
The lifetime of a drug on its target is determined by two rate constants: the association rate constant (kon) and the dissociation rate constant (koff). In principle, the lifetime of the binary drug—target complex is thus extended by a rapid rate of drug binding and/or a slow rate of drug—target complex dissociation. The in vivo lifetime of a drug-target complex is most critically dependent on the value of the koff [Nat. Rev. Drug Discov. […] Drug Discov. […] Drug-target residence time is defined as the reciprocal of koff (τ=1/koff), making the residence time a parameter that is easily measured by routine in vitro assay methods.

| Kd [nM] | SMILES |
| --- | --- |
| 93.2 | C[C@@H]1CN(c2cc(F)c(-c3cnc(N4CCOCC4)nc3)cc2NC(=O)c2scnc2C(F)(F)F)C[C@H](C)N1C [Example 188, N-[4-fluoro-5-(2-morpholin-4-ylpyrimidin-5-yl)-2-[(3R,5S)-3,4,5-trimethylpiperazin-1-yl]phenyl]-4-(trifluoromethyl)-1,3-thiazole-5-carboxamide] |
| 11.1 | C[C@@H]1CN(c2cc(F)c(-c3cnc(N4CCOCC4)nc3)cc2NC(=O)c2cccc(F)c2C(F)(F)F)C[C@H](C)N1C [Example 295, 3-fluoro-N-[4-fluoro-5-(2-morpholin-4-ylpyrimidin-5-yl)-2-[(3R,5S)-3,4,5-trimethylpiperazin-1-yl]phenyl]-2-(trifluoromethyl)benzamide] |
| 1.98 | C[C@@H]1CN(c2cc(F)c(-c3cnc(N4CCOCC4)nc3)cc2NC(=O)c2c(O)cnc3ccccc23)C[C@H](C)N1C [Example 282, N-[4-fluoro-5-(2-morpholin-4-ylpyrimidin-5-yl)-2-[(3R,5S)-3,4,5-trimethylpiperazin-1-yl]phenyl]-3-hydroxyquinoline-4-carboxamide] |
| 175 | C[C@@H]1CN(c2cc(F)c(-c3cnc(N4CCOCC4)nc3)cc2NC(=O)c2ccccc2Cl)C[C@H](C)N1C [Example 109, 2-chloro-N-[4-fluoro-5-(2-morpholin-4-ylpyrimidin-5-yl)-2-[(3R,5S)-3,4,5-trimethylpiperazin-1-yl]phenyl]benzamide] |
| 20.6 | C[C@@H]1CN(c2cc(F)c(-c3cnc(N4CCOCC4)nc3)cc2NC(=O)c2cc(Cl)cc(C(F)(F)F)c2)C[C@H](C)N1C [Example 175, 3-chloro-N-[4-fluoro-5-(2-morpholin-4-ylpyrimidin-5-yl)-2-[(3R,5S)-3,4,5-trimethylpiperazin-1-yl]phenyl]-5-(trifluoromethyl)benzamide] |
| 57.2 | COc1cc(=O)[nH]cc1C(=O)Nc1cc(-c2cnc(N3CCOCC3)nc2)c(F)cc1N1C[C@@H](C)N(C)[C@@H](C)C1 [Example 65, N-[4-fluoro-5-(2-morpholin-4-ylpyrimidin-5-yl)-2-[(3R,5S)-3,4,5-trimethylpiperazin-1-yl]phenyl]-4-methoxy-6-oxo-1H-pyridine-3-carboxamide] |

More lines, now with the values behind:

| SMILES | Kd [nM] |
| --- | --- |
| C[C@@H]1CN(c2cc(F)c(C3=CCN(c4ncc(C=O)cn4)CC3)cc2NC(=O)c2c[nH]c(=O)cc2C(F)(F)F)C[C@H](C)N1C [Example 369, N-[4-fluoro-5-[1-(5-formylpyrimidin-2-yl)-3,6-dihydro-2H-pyridin-4-yl]-2-[(3R,5S)-3,4,5-trimethylpiperazin-1-yl]phenyl]-6-oxo-4-(trifluoromethyl)-1H-pyridine-3-carboxamide] | 0.685 |
| C[C@@H]1CN(c2cc(F)c(C3=CCCN(c4ncc(F)cn4)C3)cc2NC(=O)c2c[nH]c(=O)cc2C(F)(F)F)C[C@H](C)N1C [Example 377, N-[4-fluoro-5-[1-(5-fluoropyrimidin-2-yl)-3,6-dihydro-2H-pyridin-5-yl]-2-[(3R,5S)-3,4,5-trimethylpiperazin-1-yl]phenyl]-6-oxo-4-(trifluoromethyl)-1H-pyridine-3-carboxamide] | 1.3 |
| C[C@@H]1CN(c2cc(F)c(N3CCN(c4ncccn4)CC3)cc2NC(=O)c2c[nH]c(=O)cc2C(F)(F)F)C[C@H](C)N1C [Example 393, N-[4-fluoro-5-(4-pyrimidin-2-ylpiperazin-1-yl)-2-[(3R,5S)-3,4,5-trimethylpiperazin-1-yl]phenyl]-6-oxo-4-(trifluoromethyl)-1H-pyridine-3-carboxamide] | 13.3 |
| CC1CN(c2cc(F)c(-c3ccc(N4CCOCC4)nc3)cc2NC(=O)c2c[nH]c(=O)cc2C(F)(F)F)CCN1C (stereo in doubt) [Example 239, N-[4-fluoro-5-(6-morpholin-4-ylpyridin-3-yl)-2-[(3R)-3,4-dimethylpiperazin-1-yl]phenyl]-6-oxo-4-(trifluoromethyl)-1H-pyridine-3-carboxamide] | 1.07 |
| C[C@@H]1CN(c2cc(F)c(-c3cncc(C(F)(F)F)c3)cc2NC(=O)c2c[nH]c(=O)cc2C(F)(F)F)C[C@H](C)N1C [Example 173, N-[4-fluoro-2-[(3R,5S)-3,4,5-trimethylpiperazin-1-yl]-5-[5-(trifluoromethyl)pyridin-3-yl]phenyl]-6-oxo-4-(trifluoromethyl)-1H-pyridine-3-carboxamide] | 2.78 |
| CC(C)COC(=O)N1CC=C(c2cc(NC(=O)c3c[nH]c(=O)cc3C(F)(F)F)c(N3C[C@@H](C)N(C)[C@@H](C)C3)cc2F)CC1 [Example 254, 2-methylpropyl 4-[2-fluoro-5-[[6-oxo-4-(trifluoromethyl)-1H-pyridine-3-carbonyl]amino]-4-[(3R,5S)-3,4,5-trimethylpiperazin-1-yl]phenyl]-3,6-dihydro-2H-pyridine-1-carboxylate] | 3.34 |
| C[C@@H]1CN(c2cc(F)c(-c3cnc4c(c3)OCCO4)cc2NC(=O)c2c[nH]c(=O)cc2C(F)(F)F)C[C@H](C)N1C [Example 223, N-[5-(2,3-dihydro-[1,4]dioxino[2,3-b]pyridin-7-yl)-4-fluoro-2-[(3R,5S)-3,4,5-trimethylpiperazin-1-yl]phenyl]-6-oxo-4-(trifluoromethyl)-1H-pyridine-3-carboxamide] | 1.63 |
| C[C@@H]1CN(c2cc(F)c(-c3cccnc3OC3CCCCC3)cc2NC(=O)c2c[nH]c(=O)cc2C(F)(F)F)C[C@H](C)N1C [Example 207, N-[5-(2-cyclohexyloxypyridin-3-yl)-4-fluoro-2-[(3R,5S)-3,4,5-trimethylpiperazin-1-yl]phenyl]-6-oxo-4-(trifluoromethyl)-1H-pyridine-3-carboxamide] | 6.69 |
| CC1CN(c2cc(F)c(-c3ccc(N4CCN(C)CC4)cc3)cc2NC(=O)c2cn(C)c(=O)cc2C(F)(F)F)CCN1C (stereo in doubt) [Example 302, N-[4-fluoro-5-[4-(4-methylpiperazin-1-yl)phenyl]-2-[(3R)-3,4-dimethylpiperazin-1-yl]phenyl]-1-methyl-6-oxo-4-(trifluoromethyl)pyridine-3-carboxamide] | 5.37 |
| CC1CN(c2cc(F)c(-c3cnc(N4CCOCC4)nc3)cc2NC(=O)c2nn(C)c3ccccc23)CCN1C (stereo in doubt) [Example 116, N-[4-fluoro-5-(2-morpholin-4-ylpyrimidin-5-yl)-2-[(3R)-3,4-dimethylpiperazin-1-yl]phenyl]-1-methylindazole-3-carboxamide] | 76.8 |

Same assay, conditions: surface plasmon resonance (SPR); read-out: WDR5 binding affinity (KD)

| Kd [nM] | SMILES |
| --- | --- |
| 4.05 | C[C@@H]1CN(c2cc(F)c(-c3cnc(N4CCN(C5CC5)CC4)nc3)cc2NC(=O)c2ccc(F)cc2C(F)(F)F)C[C@H](C)N1C [Example 454, N-[5-[2-(4-cyclopropylpiperazin-1-yl)pyrimidin-5-yl]-4-fluoro-2-[(3R,5S)-3,4,5-trimethylpiperazin-1-yl]phenyl]-4-fluoro-2-(trifluoromethyl)benzamide] |
| 4.61 | C[C@@H]1COCCN1c1ncc(-c2cc(NC(=O)c3ccc(F)cc3C(F)(F)F)c(N3CCN(C)[C@@H](C)C3)cc2F)cn1 [Example 737, 4-fluoro-N-[4-fluoro-2-[(3S)-3,4-dimethylpiperazin-1-yl]-5-[2-[(3R)-3-methylmorpholin-4-yl]pyrimidin-5-yl]phenyl]-2-(trifluoromethyl)benzamide] |

Further lines, the compound ahead of its results:

| SMILES | Kd [nM] |
| --- | --- |
| C[C@@H]1CN(c2cc(F)c(-c3cccc4scnc34)cc2NC(=O)c2cn(C)c(=O)cc2C(F)F)C[C@H](C)N1C [Example 682, N-[5-(1,3-benzothiazol-4-yl)-4-fluoro-2-[(3R,5S)-3,4,5-trimethylpiperazin-1-yl]phenyl]-4-(difluoromethyl)-1-methyl-6-oxopyridine-3-carboxamide] | 20.4 |
| C[C@@H]1CN(c2cc(F)c(-c3ncc(C(=O)NC4CCCCC4)s3)cc2NC(=O)c2c[nH]c(=O)cc2C(F)(F)F)C[C@H](C)N1C [Example 498, N-cyclohexyl-2-[2-fluoro-5-[[6-oxo-4-(trifluoromethyl)-1H-pyridine-3-carbonyl]amino]-4-[(3R,5S)-3,4,5-trimethylpiperazin-1-yl]phenyl]-1,3-thiazole-5-carboxamide] | 1.47 |
| CNC(=O)c1ccc(-c2cc(NC(=O)c3c[nH]c(=O)cc3C(F)(F)F)c(N3C[C@@H](C)N(C)[C@@H](C)C3)cc2F)cc1F [Example 603, N-[4-fluoro-5-[3-fluoro-4-(methylcarbamoyl)phenyl]-2-[(3R,5S)-3,4,5-trimethylpiperazin-1-yl]phenyl]-6-oxo-4-(trifluoromethyl)-1H-pyridine-3-carboxamide] | 1.09 |
| C[C@@H]1CN(c2cc(F)c(C3=CCN(C(=O)N4CCCC4)C3)cc2NC(=O)c2c[nH]c(=O)cc2C(F)F)C[C@H](C)N1C [Example 612, 4-(Difluoromethyl)-N-(4-fluoro-5-(1-(pyrrolidine-1-carbonyl)-2,5-dihydro-1H-pyrrol-3-yl)-2-((3S,5R)-3,4,5-trimethylpiperazin-1-yl)phenyl)-6-oxo-1,6-dihydropyridine-3-carboxamide] | 1.94 |
| C[C@H]1CN(c2cc(F)c(C3=CCN(c4cnc(C#N)nc4)CC3)cc2NC(=O)c2c[nH]c(=O)cc2C(F)F)CCN1C [Example 639, (S)—N-(5-(1-(2-cyanopyrimidin-5-yl)-1,2,3,6-tetrahydropyridin-4-yl)-2-(3,4-dimethylpiperazin-1-yl)-4-fluorophenyl)-4-(difluoromethyl)-6-oxo-1,6-dihydropyridine-3-carboxamide] | 4.97 |
| C[C@@H]1CN(c2cc(F)c(C3=CCN(C(=O)OC4(C)COC4)CC3)cc2NC(=O)c2c[nH]c(=O)cc2C(F)(F)F)C[C@H](C)N1C [Example 488, (3-methyloxetan-3-yl) 4-[2-fluoro-5-[[6-oxo-4-(trifluoromethyl)-1H-pyridine-3-carbonyl]amino]-4-[(3R,5S)-3,4,5-trimethylpiperazin-1-yl]phenyl]-3,6-dihydro-2H-pyridine-1-carboxylate] | 4.87 |
